Assays:
[1] = system: BRDTBD1 expressed in M. smegmatis cells; assay: In vivo degradation assay in live mycobacteria, capillary western (Wes); format: cell-based, M. smegmatis mc^2-155; details: 100 µM, 10 µM or 1 µM BacPROTAC-3, 100 µM sCym-1 or 100 µM JQ1; 2 hours incubation; Figure 3
Protocol: After validating the activity of the compound Cym_bacPROTAC_3 in vitro, the compound was investigated in an in vivo degradation assay in a cellular environment. For the in vivo degradation assay Msm cells stably expressing BRDTBD1 were used. The culture was treated with the compound Cym_bacPROTAC_3 or alternatively, the individual building blocks sCym-1 and JQ1. After two hours incubation, BRDTBD1 levels were quantified using capillary western as detailed below.
A stationary culture of M. smegmatis mc^2-155 carrying a plasmid BRDTBD1 expression was diluted 1:200 in 50 mL 7H9 medium supplemented with 50 µg/mL hygromycin. The culture was grown at 37 °C with vigorous shaking to an OD600 of ∼1. Expression of BRDTBD1 was then induced by addition of 200 µL 50% acetamide in H2O. […]
The amounts of BRDTBD1 in the lysates were quantified using Wes (ProteinSimple), a capillary electrophoresis-based western blot technology. Bacterial lysates were diluted 2-fold and analysed using the 12-230 kDa Wes Separation Module (Protein simple, SM-W004) following the manufacturer's instructions. […] BRDTBD1 was detected using the Anti-Rabbit Detection Module for Wes (ProteinSimple, DM-001), which includes a peroxidase-conjugated secondary antibody and a chemiluminescent substrate. Results were analysed using the Compass for SW software (ProteinSimple). […]

[2] = system: mycobacterial proteome (2912 proteins) incl. BRDTBD1; assay: Selectivity of protein degradation, TMT mass spectrometric analysis of Msm lysates; format: cell-based, M. smegmatis; details: TMT MS, triplicate analysis, Figure 4
Protocol: To address this point, a tandem mass tag (TMT) mass spectrometric (MS) analysis of Msm lysates was performed.
Thus, the TMT MS analysis provides compelling evidence that the compound Cym_bacPROTAC_3 is capable of inducing degradation of the BRDTBD1 substrate in a highly specific and efficient manner.

## Cc1sc2c(c1C)C(c1ccc(Cl)cc1)=N[C@@H](CC(=O)OC(C)(C)C)c1nnc(C)n1-2 [JQ1]
[1]
  BRDTBD1 levels after treatment: did not affect BRDTBD1 levels
[2]
  change in protein abundance versus vehicle (DMSO): did not affect BRDTBD1 levels and did also not cause global effects
